Legend:
RS4;11 cells = experiment: Cell viability assay (CellTiter-Glo) in RS4;11 cell line; format: cell-based; conditions: 24 hours, 10% Human Serum, 50% decrease in cell viability
Summary of the method: (§1)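 RS4;11 or Molt-4 cells (3000 per well) in RPMI 1640 with 10% human serum treated with compound for 24 h, 5% CO2. Viability measured by CellTiter-Glo as percent of control; EC50 from sigmoidal dose-response curves.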

Molt-4 cells = experiment: Cell viability counter screen assay (CellTiter-Glo) in Molt-4 cells; format: cell-based; conditions: 24 hours, 10% Human Serum, 50% decrease in cell viability
Summary of the method: as §1

EC50 (RS4;11 cells) | SMILES | EC50 (Molt-4 cells)
3.93 nM | CO[C@H]1C[C@H](CNc2ccc(S(=O)(=O)NC(=O)c3ccc(N4CCN5CC6=C(c7ccc(Cl)cc7)CC(C)(C)C[C@H]6OCCCOC[C@@H]5C4)cc3N3CCCOc4nc5[nH]ccc5cc43)cc2[N+](=O)[O-])C1 [Example 41, 4-((4aS,10aR)-14-(4-chlorophenyl)-12,12-dimethyl-1,2,4a,5,8,9,10a,11,13,15-decahydro-7H,12H-benzo[f]pyrazino[2,1-c][1,8]dioxa[4]azacycloundecin-3(4H)-yl)-2-(3,4-dihydro-2H-pyrrolo[3′,2′:5,6]pyrido[2,3-h][1,4]oxazepin-1(7H)-yl)-N-((4-((((1r,3r)-3-methoxycyclobutyl)methyl)amino)-3-nitrophenyl)sulfonyl)benzamide] | > 10000 nM
0.651 nM | CC1(C)CC(c2ccc(Cl)cc2)=C2CN3CCN(c4ccc(C(=O)NS(=O)(=O)c5ccc(NC[C@H]6CC[C@](C)(O)CO6)c([N+](=O)[O-])c5)c(N5CCCOc6nc7[nH]ccc7cc65)c4)C[C@H]3COCCCO[C@@H]2C1 [Example 2, 4-((4aS,10aR)-14-(4-chlorophenyl)-12,12-dimethyl-1,2,4a,5,8,9,10a,11,13,15-decahydro-7H,12H-benzo[f]pyrazino[2,1-c][1,8]dioxa[4]azacycloundecin-3(4H)-yl)-2-(3,4-dihydro-2H-pyrrolo[3′,2′:5,6]pyrido[2,3-h][1,4]oxazepin-1(7H)-yl)-N-((4-((((2R,5S)-5-hydroxy-5-methyltetrahydro-2H-pyran-2-yl)methyl)amino)-3-nitrophenyl)sulfonyl)benzamide] | 1220 nM
